Patent US11985974B2, “Antimicrobial ferulic acid derivatives and uses thereof” (WISCONSIN ALUMNI RESEARCH FOUNDATION, priority 2014, dated 2024)

System: Saccharomyces cerevisiae
Test: Synergy screening
Type: cell-based
Protocol: To test for synergy, a 6×6-dose matrix was initially used to identify potentially synergistic dose combinations, and these points were then confirmed in triplicate. Cultures (200 μL) were grown with combinations of poacic acid (125 μg/mL), caspofungin (12.5 ng/mL), and fluconazole (3.8 μg/mL), and the ODs of relevant single-agent and solvent controls were measured after 24 h. Synergy was determined by comparing actual OD in the presence of compound combinations with an expected value calculated using the multiplicative hypothesis. This method assumes that, in the absence of an interaction, each compound would decrease the OD of the cell culture by the same fraction in the presence of the other compound as it does when applied alone (that is, E=A×B/C, where E is the expected OD, A is OD when compound A is applied alone, B is OD when compound B is applied alone, and C is OD of the control culture (DMSO). In the presence of synergy, the actual OD value is lower than the expected OD. A paired t test was used to confirm statistical significance of this difference in three replicates of the experiment.

Q: `COc1cc(/C=C/c2cc(/C=C/C(=O)O)cc(OC)c2O)ccc1O` [poacic acid, (E)-4-Hydroxy-3-{2-[(E)-4-hydroxy-3-methoxystyryl]}-5-methoxycinnamic acid] was tested. Which “synergy with methyl methanesulfonate (MMS)” value did it give?
A: not synergistic

Q: What about the synergy with caspofungin (poacic acid 125 μg/mL + caspofungin 12.5 ng/mL, 24 h, P<0.05) of the same compound?
A: significant synergistic effects

Q: What about the synergy with fluconazole (poacic acid 125 μg/mL + fluconazole 3.8 μg/mL, 24 h, P<0.01) of the same compound?
A: significant synergy

Q: What about the synergy with staurosporine (poacic acid 125 μg/ml + staurosporine 100 ng/ml) of the same compound?
A: synergy
